The subject of experiment [1] is oma1−/− mouse embryonic fibroblasts. Kind of experiment: Cell viability / growth rate of MEF cells under glutamate pathway inhibition. The format is cell-based. Particulars: 10 μM BPTES, low glucose or 10 mM galactose medium; oma1−/− vs wild type MEFs (FIG. 1B). The method, then: FIG. 1A depicts extracellular acidification rates (ECAR) in wild type and oma1^−/− mouse embryonic fibroblasts under basal, FCCP-stimulated, and glycolysis-ablating (2-DG) conditions. Cells were cultured in the media containing 10 mM glucose. Data are shown as mean values of 3 independent experiments±S.E.M.; **p<0.01, by unpaired t-test. FIG. 1B depicts growth rate of wild type (WT) and oma1^−/− MEF cells under conditions of glutamate pathway inhibition by BPTES. Cells were cultured in the 10 mM galactose-containing medium with (left panel) or without (right panel) 10 μM BPTES for the indicated periods of time and the number of viable cells at each time point has been assessed. […] FIG. 1D depicts the prevalence of cells with protrusions was analyzed in WT and oma1^−/− MEF cells two days after re-seeding on 6-well plates after one week of growth at 100% confluence. […] Of the cells in the field of view, the number of cells with long lamellopodia and cells with normal lamellopodia were counted. […]
(§1) The wild type and oma1^−/− mouse embryonic fibroblasts (24, obtained from Dr. Carlos Lopez-Otin, University of Oviedo) were seeded into 12-well plates at the density of 4×10^4 cells per well. […] Every 24 hours cells, from one well per condition were trypsinized with 0.05% Trypsin (Life Technologies), washed with Ca-, Mg-PBS, resuspended and counted in Countess Automated Cell Counter (Life Technologies). […]

Experiment [2] has as its system OMA1-depleted 21MT-1 cells. Kind of experiment: Growth rate of control and OMA1-depleted 21MT-1 cells under glutamate pathway inhibition. The format is cell-based, human. Particulars: 10 μM BPTES, 10 mM galactose medium; OMA1 KD vs control 21MT-1 cells (FIG. 3C). On the procedure:
FIG. 3A depicts a representative oxygen consumption rate (OCR) graph in control and OMA1-depleted 21MT-1 cells under basal, oligomycin A (OLA), FCCP, and Antimycin A/Rotenone (AA+Rot.) stimulated conditions. Cells were cultured in the medium containing 10 mM galactose. FIG. 3B depicts respiratory control ratios in control and OMA1 KD 21MT-1 cells cultured in 10 mM galactose medium. Data represent the mean±S.E.M. (n=3 biological replicates); *p<0.05, by t-test. FIG. 3C depicts the growth rate of control and OMA1-depleted 21MT-1 cells under conditions of glutamate pathway inhibition. Cells were cultured in the 10 mM galactose-containing medium in the presence of 10 μM BPTES for the indicated periods of time and the number of viable cells at each time point has been assessed. Data represent the mean±S.D. (n=3 biological replicates); *p<0.05, ***p<0.001, by unpaired t-test.
as §1

Regarding `O=C(Cc1ccccc1)Nc1nnc(CCSCCc2nnc(NC(=O)Cc3ccccc3)s2)s1` [BPTES], the “proliferation of oma1−/− MEFs compared with wild type cells” value in experiment [1] is given as “proliferated at much slower rates than wild type cells”. Besides, in experiment [2], the “sensitivity of OMA1-depleted 21MT-1 cells to glutaminase inhibitor” value is on record as “marked increase in sensitivity”.

The record behind these values is patent US12050218B2, “Mitochondrial protease OMA1 as a marker for breast cancer” (NUtech Ventures, priority 2017, dated 2024).
